Experimental data reported in PubChem BioAssay (NCI).
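Tested at 5 concentrations; 48 h exposure; 96-well plates; endpoints linearly interpolated, else capped at highest concentration. At the GI50, growth is halved. TGI denotes the concentration required for complete inhibition of growth.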

What was measured:
Test in all cases: DTP human tumour cell line panel, 48 h
[1] = tested on: SW-620 colon
[2] = tested on: OVCAR-5 ovarian
[3] = tested on: UACC-257 melanoma
[4] = tested on: MALME-3M melanoma
[5] = tested on: SNB-75 CNS
[6] = tested on: HCT-116 colon
[7] = tested on: CAKI-1 renal
[8] = tested on: UACC-62 melanoma
[9] = tested on: OVCAR-3 ovarian
[10] = tested on: KM12 colon
[11] = tested on: T-47D breast
[12] = tested on: HOP-62 NSCLC
[13] = tested on: TK-10 renal
[14] = tested on: SF-295 CNS
[15] = tested on: NCI-H460 lung
[16] = tested on: ACHN renal
[17] = tested on: SK-OV-3 ovarian
[18] = tested on: SF-268 CNS
[19] = tested on: 786-0 renal
[20] = tested on: OVCAR-8 ovarian
[21] = tested on: NCI-H226 lung
[22] = tested on: SF-539 CNS
[23] = tested on: EKVX NSCLC
[24] = tested on: HL-60(TB) leukemia
[25] = tested on: HS 578T breast
[26] = tested on: SK-MEL-28 melanoma
[27] = tested on: DU-145 prostate
[28] = tested on: CCRF-CEM leukemia
[29] = tested on: MDA-MB-231 breast
[30] = tested on: RPMI-8226 leukemia
[31] = tested on: SK-MEL-5 melanoma
[32] = tested on: MDA-MB-468 breast
[33] = tested on: UO-31 renal
[34] = tested on: MCF7 breast
[35] = tested on: BT-549 breast
[36] = tested on: A549 NSCLC
[37] = tested on: NCI-H23 lung
[38] = tested on: HCC-2998 colon
[39] = tested on: SN12C renal
[40] = tested on: K-562 leukemia
[41] = tested on: LOX IMVI melanoma
[42] = tested on: HT29 colon
[43] = tested on: NCI-H522 lung
[44] = tested on: SR leukemia
[45] = tested on: NCI/ADR-RES ovarian
[46] = tested on: SNB-19 CNS
[47] = tested on: OVCAR-4 ovarian
[48] = tested on: SK-MEL-2 melanoma
[49] = tested on: HCT-15 colon
[50] = tested on: HOP-92 NSCLC
[51] = tested on: U251 CNS
[52] = tested on: COLO 205 colon
[53] = tested on: RXF 393 renal
[54] = tested on: M14 melanoma
[55] = tested on: MDA-MB-435
[56] = tested on: PC-3 prostate
[57] = tested on: MOLT-4 leukemia
[58] = tested on: IGROV1 ovarian
[59] = tested on: A498 renal

For `COc1cc(Cn2c(C(F)(F)F)cc3c(Cl)ncnc32)ccn1`, the GI50 [1] was 3.86 µM, the TGI [1] was 16.7 µM and the GI50 [2] was 16 µM. The TGI [2] was 32.4 µM, the GI50 [3] was 8.49 µM and the TGI [3] was 21.7 µM. For the same molecule, the GI50 [4] was 12.6 µM, the TGI [4] was 25.5 µM and the GI50 [5] was 1.78 µM. For the same molecule, the TGI [5] was 7.27 µM, the GI50 [6] was 1.74 µM and the TGI [6] was 4.3 µM. For the same molecule, the GI50 [7] was 7.32 µM, the TGI [7] was 20.6 µM and the GI50 [8] was 8.1 µM. The TGI [8] was 20.6 µM, the GI50 [9] was 2.32 µM and the TGI [9] was 7.05 µM. The GI50 [10] was 13.5 µM, the TGI [10] was 30.5 µM and the GI50 [11] was 13.4 µM. The TGI [11] was 61.6 µM, the GI50 [12] was 14.3 µM and the TGI [12] was 29.7 µM. It also gave a GI50 [13] of 18.9 µM, a TGI [13] of 46.9 µM and a GI50 [14] of 16.8 µM. For the same molecule, the TGI [14] was 32.5 µM, the GI50 [15] was 2.69 µM and the TGI [15] was 8.19 µM. It also gave a GI50 [16] of 14.4 µM, a TGI [16] of 28.8 µM and a GI50 [17] of 17.1 µM. It also gave a TGI [17] of 32.3 µM, a GI50 [18] of 2.47 µM and a TGI [18] of 9.37 µM. For the same molecule, the GI50 [19] was 10.6 µM, the TGI [19] was 25.9 µM and the GI50 [20] was 11.4 µM. For the same molecule, the TGI [20] was 26.6 µM, the GI50 [21] was 15.5 µM and the TGI [21] was 32.3 µM. For the same molecule, the GI50 [22] was 13.8 µM, the TGI [22] was 26.7 µM and the GI50 [23] was 7.95 µM. The TGI [23] was 23.9 µM, the GI50 [24] was 2.14 µM and the TGI [24] was 7.28 µM. The GI50 [25] was 3.13 µM, the TGI [25] was 16.6 µM and the GI50 [26] was 4.6 µM. It also gave a TGI [26] of 16.1 µM, a GI50 [27] of 1.76 µM and a TGI [27] of 3.22 µM. For the same molecule, the GI50 [28] was 3.14 µM, the TGI [28] was 18.6 µM and the GI50 [29] was 3.33 µM. It also gave a TGI [29] of 12.6 µM, a GI50 [30] of 15.4 µM and a TGI [30] of 78.6 µM. For the same molecule, the GI50 [31] was 3.9 µM, the TGI [31] was 14.1 µM and the GI50 [32] was 1.78 µM. The TGI [32] was 3.77 µM, the GI50 [33] was 8.66 µM and the TGI [33] was 24.1 µM. For the same molecule, the GI50 [34] was 5.12 µM, the TGI [34] was 19.8 µM and the GI50 [35] was 1.63 µM. For the same molecule, the TGI [35] was 3.16 µM, the GI50 [36] was 16.4 µM and the TGI [36] was 38.4 µM. For the same molecule, the GI50 [37] was 2.19 µM, the TGI [37] was 4.91 µM and the GI50 [38] was 1.78 µM. It also gave a TGI [38] of 3.27 µM, a GI50 [39] of 9.21 µM and a TGI [39] of 21.5 µM. For the same molecule, the GI50 [40] was 2.36 µM, the TGI [40] was over 100 µM and the GI50 [41] was 1.67 µM. For the same molecule, the TGI [41] was 3.17 µM, the GI50 [42] was 14.1 µM and the TGI [42] was 41.3 µM. It also gave a GI50 [43] of 3.28 µM, a TGI [43] of 15.3 µM and a GI50 [44] of 3.61 µM. It also gave a TGI [44] of over 100 µM, a GI50 [45] of 15.3 µM and a TGI [45] of 33.7 µM. For the same molecule, the GI50 [46] was 11.8 µM, the TGI [46] was 24.1 µM and the GI50 [47] was 12 µM. It also gave a TGI [47] of 26.7 µM, a GI50 [48] of 9.95 µM and a TGI [48] of 22.5 µM. For the same molecule, the GI50 [49] was 3.09 µM, the GI50 [50] was 10.7 µM and the TGI [50] was 30.3 µM. It also gave a GI50 [51] of 15 µM, a TGI [51] of 28.9 µM and a GI50 [52] of 15.3 µM. The TGI [52] was 46.3 µM, the GI50 [53] was 7.9 µM and the TGI [53] was 22.4 µM. It also gave a GI50 [54] of 1.52 µM, a TGI [54] of 4.16 µM and a GI50 [55] of 3.26 µM. It also gave a TGI [55] of 14.6 µM, a GI50 [56] of 5.56 µM and a TGI [56] of 20.8 µM. It also gave a GI50 [57] of 3.3 µM, a TGI [57] of over 100 µM and a GI50 [58] of 1.78 µM. For the same molecule, the TGI [58] was 3.62 µM, the GI50 [59] was 16 µM and the TGI [59] was 30.8 µM.
